Results from patent US9938261B2, “Heterocyclic compounds and methods of use thereof” (AMBIT BIOSCIENCES CORPORATION, priority 2011, dated 2018).
Like-named read-outs stand apart in the source and are kept apart here.

Assays:
KIT = target: T1, KIT (Homo sapiens, UniProt P10721); experiment: Competition binding assay, KIT Kd
T1 construct: made in house
Summary of the method: (§1)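 Read-out is quantitative PCR of kinase recovered from affinity beads after competition with test compound. Binding reached equilibrium over 1 hour at room temperature; Kd values come from eleven-point threefold serial dilutions.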

[1] = target: kinase panel containing either 386 or 392 distinct kinases; experiment: Kinase selectivity score S10 from competition binding panel
Summary of the method: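 S10 is the number of kinases with percent-of-control under 10, divided by all distinct wild-type kinases tested, from a single 10 μM concentration. Binding measured by qPCR of kinase recovered from ligand-coated beads after 1 h equilibrium at room temperature; kinases were phage fusions or DNA-tagged HEK-293 products.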

PDGFRβ = target: T2, PDGFRβ (Homo sapiens, UniProt P09619); experiment: Competition binding assay, PDGFRβ Kd
T2 construct: made in house
Summary of the method: as §1

M-NFS-60 cells = experiment: M-NFS-60 cell proliferation assay (Alamar Blue); assay type: cell-based, mouse; details: Mus musculus, read-out: CSF1R M-NFS-60 CTB:IC50
Summary of the method: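 Alamar Blue reduction (3 h; 560/590 nm) measured viability after 72 h, 37 °C treatment with nine half-log compound concentrations at 0.5% DMSO. Cells: M-CSF-dependent (20 ng/mL) murine M-NFS-60 in RPMI plus 10% FBS. IC50s, averaged from duplicates, reflect half-maximal inhibition of proliferation relative to control.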

CSF1R = CSF1R (Homo sapiens, UniProt P07333); experiment: Competition binding assay, CSF1R Kd; design: made in house
Summary of the method: as §1

[2] = compounds at 10 μM, 386 or 392 distinct kinases
[3] = 72 hours incubation, M-CSF 20 ng/mL
[4] = 10 μM, panel of 386 or 392 distinct kinases

Sequence of CSF1R (P07333 20-972): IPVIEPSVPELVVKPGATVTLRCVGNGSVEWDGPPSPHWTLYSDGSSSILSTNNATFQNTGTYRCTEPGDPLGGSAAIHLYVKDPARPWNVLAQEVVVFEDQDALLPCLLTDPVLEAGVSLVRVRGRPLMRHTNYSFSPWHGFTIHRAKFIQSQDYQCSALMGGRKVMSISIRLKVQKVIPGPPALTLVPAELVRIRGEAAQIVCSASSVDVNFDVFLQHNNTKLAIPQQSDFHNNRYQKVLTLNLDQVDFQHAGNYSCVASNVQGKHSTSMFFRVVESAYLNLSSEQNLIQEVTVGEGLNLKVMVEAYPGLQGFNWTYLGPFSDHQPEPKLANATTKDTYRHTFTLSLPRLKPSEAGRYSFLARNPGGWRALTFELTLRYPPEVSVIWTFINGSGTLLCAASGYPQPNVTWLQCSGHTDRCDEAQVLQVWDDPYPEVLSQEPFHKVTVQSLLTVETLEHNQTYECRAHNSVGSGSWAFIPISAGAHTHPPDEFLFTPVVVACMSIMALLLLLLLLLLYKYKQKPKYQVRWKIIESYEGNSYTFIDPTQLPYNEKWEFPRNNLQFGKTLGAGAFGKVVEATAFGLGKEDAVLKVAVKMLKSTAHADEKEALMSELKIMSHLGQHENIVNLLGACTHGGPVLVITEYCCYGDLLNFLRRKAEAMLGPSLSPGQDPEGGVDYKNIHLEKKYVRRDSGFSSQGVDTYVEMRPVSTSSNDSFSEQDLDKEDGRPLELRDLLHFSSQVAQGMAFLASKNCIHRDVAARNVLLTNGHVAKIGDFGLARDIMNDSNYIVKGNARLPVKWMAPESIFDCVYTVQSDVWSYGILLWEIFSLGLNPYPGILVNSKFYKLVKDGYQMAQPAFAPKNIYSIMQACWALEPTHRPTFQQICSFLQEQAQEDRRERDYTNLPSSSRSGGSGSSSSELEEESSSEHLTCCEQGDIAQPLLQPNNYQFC
T1 sequence (P10721 26-976): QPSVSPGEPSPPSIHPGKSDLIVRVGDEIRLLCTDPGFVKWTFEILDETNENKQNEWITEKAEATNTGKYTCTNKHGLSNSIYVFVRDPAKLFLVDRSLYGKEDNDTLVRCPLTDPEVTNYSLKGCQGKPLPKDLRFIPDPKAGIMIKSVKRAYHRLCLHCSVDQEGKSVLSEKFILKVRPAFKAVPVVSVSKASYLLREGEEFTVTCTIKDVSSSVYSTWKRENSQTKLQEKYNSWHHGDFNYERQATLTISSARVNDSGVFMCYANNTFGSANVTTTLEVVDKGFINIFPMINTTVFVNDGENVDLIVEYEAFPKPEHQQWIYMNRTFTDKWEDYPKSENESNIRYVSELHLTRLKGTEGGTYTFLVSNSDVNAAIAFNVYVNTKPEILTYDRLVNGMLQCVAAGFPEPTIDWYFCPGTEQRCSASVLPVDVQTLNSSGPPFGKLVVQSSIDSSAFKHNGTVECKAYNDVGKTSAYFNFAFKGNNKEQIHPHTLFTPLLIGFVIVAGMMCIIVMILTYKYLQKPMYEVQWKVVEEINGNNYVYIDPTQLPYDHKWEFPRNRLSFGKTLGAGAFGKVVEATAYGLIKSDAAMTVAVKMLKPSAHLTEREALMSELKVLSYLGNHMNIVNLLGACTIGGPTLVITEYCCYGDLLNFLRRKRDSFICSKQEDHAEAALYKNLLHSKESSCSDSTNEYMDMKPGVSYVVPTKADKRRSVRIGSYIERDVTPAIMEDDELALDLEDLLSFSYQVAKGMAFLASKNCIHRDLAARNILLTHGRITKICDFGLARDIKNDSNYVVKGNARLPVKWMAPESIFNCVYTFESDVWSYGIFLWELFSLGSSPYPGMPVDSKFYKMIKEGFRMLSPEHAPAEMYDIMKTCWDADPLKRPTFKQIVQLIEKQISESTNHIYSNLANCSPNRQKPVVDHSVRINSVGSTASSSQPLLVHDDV
T2 sequence (P09619 33-1106): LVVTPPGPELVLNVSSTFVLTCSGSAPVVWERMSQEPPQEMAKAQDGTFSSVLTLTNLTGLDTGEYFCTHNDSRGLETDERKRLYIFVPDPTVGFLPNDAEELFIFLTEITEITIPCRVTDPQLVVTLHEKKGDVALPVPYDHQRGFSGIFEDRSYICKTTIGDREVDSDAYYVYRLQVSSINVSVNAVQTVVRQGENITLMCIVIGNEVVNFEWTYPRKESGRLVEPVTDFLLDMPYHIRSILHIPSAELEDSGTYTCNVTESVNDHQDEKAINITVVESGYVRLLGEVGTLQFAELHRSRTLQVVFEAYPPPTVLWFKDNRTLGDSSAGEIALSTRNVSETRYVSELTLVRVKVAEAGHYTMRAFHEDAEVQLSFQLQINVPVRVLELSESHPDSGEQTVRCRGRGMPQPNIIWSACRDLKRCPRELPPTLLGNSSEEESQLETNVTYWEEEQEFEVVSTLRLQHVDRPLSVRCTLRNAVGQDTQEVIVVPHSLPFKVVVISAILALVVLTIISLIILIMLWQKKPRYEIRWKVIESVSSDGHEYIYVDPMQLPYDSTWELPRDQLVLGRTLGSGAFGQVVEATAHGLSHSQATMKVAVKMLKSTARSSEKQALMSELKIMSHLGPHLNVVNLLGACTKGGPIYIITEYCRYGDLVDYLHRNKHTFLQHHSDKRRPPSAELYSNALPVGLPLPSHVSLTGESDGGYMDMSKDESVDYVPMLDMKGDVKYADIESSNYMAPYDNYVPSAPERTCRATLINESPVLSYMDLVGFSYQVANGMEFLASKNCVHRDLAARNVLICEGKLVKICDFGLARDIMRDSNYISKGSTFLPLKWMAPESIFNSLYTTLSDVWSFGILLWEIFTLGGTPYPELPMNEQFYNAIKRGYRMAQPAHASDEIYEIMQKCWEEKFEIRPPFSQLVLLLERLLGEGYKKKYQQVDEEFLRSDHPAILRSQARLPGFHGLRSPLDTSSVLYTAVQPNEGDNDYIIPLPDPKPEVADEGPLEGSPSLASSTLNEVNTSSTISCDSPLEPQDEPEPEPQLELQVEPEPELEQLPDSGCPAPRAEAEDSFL

Structure (SMILES): C=Cc1cnc2c(c1)ncn2Cc1ccc2nc(N[C@@H]3CCCC[C@H]3O)sc2c1 [Example 98, (1R,2R)-2-((6-((6-vinyl-3H-imidazo[4,5-b]pyridin-3-yl)methyl)benzo[d]thiazol-2-yl)amino)cyclohexanol]
- Kd (KIT): ≤ 100 nM
- Kinase specificity S(10) [1, 2]: B (0.01<B≤0.02)
- Kd (PDGFRβ): ≤ 50 nM
- IC50 (M-NFS-60 cells; [3]): ≤ 50 nM
- Kd (CSF1R): 5 to 20 nM

Structure (SMILES): CC(=O)NCc1cnc2c(c1)ncn2Cc1ccc2nc(N[C@@H]3CCCC[C@H]3O)sc2c1 [Example 99, N-((3-((2-(((1R,2R)-2-hydroxycyclohexyl)amino)benzo[d]thiazol-6-yl)methyl)-3H-imidazo[4,5-b]pyridin-6-yl)methyl)acetamide]
- Kd (KIT): > 2000 nM
- Kinase specificity S(10) [1, 2]: A (A≤0.01)
- Kd (PDGFRβ): 500 to 2000 nM
- IC50 (M-NFS-60 cells; [3]): > 1500 nM
- Kd (CSF1R): > 50 nM

Structure (SMILES): O[C@@H]1CCCC[C@H]1Nc1nc2ccc(Cn3cnc4cc(Br)ccc43)cc2s1 [Example 100, (1R,2R)-2-((6-((5-bromo-1H-benzo[d]imidazol-1-yl)methyl)benzo[d]thiazol-2-yl)amino)cyclohexanol]
- Kd (KIT): 100 to 500 nM
- Kinase specificity S(10) [1, 2]: A (A≤0.01)
- Kd (PDGFRβ): 50 to 500 nM
- IC50 (M-NFS-60 cells; [3]): 50 to 400 nM
- Kd (CSF1R): 5 to 20 nM

Structure (SMILES): CC(=O)Nc1cn(Cc2ccc3nc(N[C@@H]4CCCC[C@H]4O)sc3c2)cn1 [Example 101, N-(1-((2-(((1R,2R)-2-hydroxycyclohexyl)amino)benzo[d]thiazol-6-yl)methyl)-1H-imidazol-4-yl)acetamide]
- Kd (KIT): 500 to 2000 nM
- Kinase specificity S(10) [1, 2]: B (0.01<B≤0.02)
- Kd (PDGFRβ): 50 to 500 nM
- IC50 (M-NFS-60 cells; [3]): 50 to 400 nM
- Kd (CSF1R): 20 to 50 nM

Structure (SMILES): CCc1cnc2c(c1)ncn2Cc1ccc2nc(N[C@@H]3CCCC[C@H]3O)sc2c1 [Example 102, (1R,2R)-2-((6-((6-ethyl-3H-imidazo[4,5-b]pyridin-3-yl)methyl)benzo[d]thiazol-2-yl)amino)cyclohexanol]
- Kd (KIT): ≤ 100 nM
- Kinase specificity S(10) [1, 2]: B (0.01<B≤0.02)
- Kd (PDGFRβ): ≤ 50 nM
- IC50 (M-NFS-60 cells; [3]): ≤ 50 nM
- Kd (CSF1R): 5 to 20 nM

Structure (SMILES): CS(=O)(=O)c1ccc2ncn(Cc3ccc4nc(N[C@@H]5CCCC[C@H]5O)sc4c3)c2n1 [Example 106, (1R,2R)-2-((6-((5-(methylsulfonyl)-3H-imidazo[4,5-b]pyridin-3-yl)methyl)benzo[d]thiazol-2-yl)amino)cyclohexanol]
- Kd (KIT; competition binding): 500 to 2000 nM
- Kinase specificity S(10) [1, 4]: A (A≤0.01)
- Kd (PDGFRβ; competition binding): 500 to 2000 nM
- IC50 (M-NFS-60 cells; M-NFS-60 cell proliferation): > 1500 nM
- Kd (CSF1R; competition binding): 20 to 50 nM

Structure (SMILES): O[C@@H]1CCCC[C@H]1Nc1nc2ccc(Cn3cnc4ccc(Br)cc43)cc2s1 [Example 107, (1R,2R)-2-((6-((6-bromo-1H-benzo[d]imidazol-1-yl)methyl)benzo[d]thiazol-2-yl)amino)cyclohexanol]
- Kd (KIT; competition binding): 100 to 500 nM
- Kinase specificity S(10) [1, 4]: B (0.01<B≤0.02)
- Kd (PDGFRβ; competition binding): 50 to 500 nM
- IC50 (M-NFS-60 cells; M-NFS-60 cell proliferation): 50 to 400 nM
- Kd (CSF1R; competition binding): 5 to 20 nM

Structure (SMILES): N#CCOc1ccc2c(c1)ncn2Cc1ccc2nc(N[C@@H]3CCCC[C@H]3O)sc2c1 [Example 196, 2-((1-((2-(((1R,2R)-2-hydroxycyclohexyl)amino)benzo[d]thiazol-6-yl)methyl)-1H-benzo[d]imidazol-5-yl)oxy)acetonitrile]
- Kd (KIT; competition binding): 100 to 500 nM
- Kinase specificity S(10) [1, 4]: A (A≤0.01)
- Kd (PDGFRβ; competition binding): 50 to 500 nM
- IC50 (M-NFS-60 cells; M-NFS-60 cell proliferation): 50 to 400 nM
- Kd (CSF1R; competition binding): ≤ 5 nM

Structure (SMILES): Fc1cnc2c(c1)ncn2Cc1ccc2nc(N[C@@H]3CCCC[C@H]3Cl)sc2c1 [Example 198, N-((1R,2R)-2-chlorocyclohexyl)-6-((6-fluoro-3H-imidazo[4,5-b]pyridin-3-yl)methyl)benzo[d]thiazol-2-amine]
- Kd (KIT; competition binding): 100 to 500 nM
- Kinase specificity S(10) [1, 4]: B (0.01<B≤0.02)
- Kd (PDGFRβ; competition binding): ≤ 50 nM
- IC50 (M-NFS-60 cells; M-NFS-60 cell proliferation): 50 to 400 nM
- Kd (CSF1R; competition binding): ≤ 5 nM

Structure (SMILES): OC1CCN(c2ccn3c(Cc4ccc5nc(N[C@@H]6CCCC[C@H]6O)sc5c4)cnc3c2)CC1 [Example 199, 1-(3-((2-(((1R,2R)-2-hydroxycyclohexyl)amino)benzo[d]thiazol-6-yl)methyl)imidazo[1,2-a]pyridin-7-yl)piperidin-4-ol]
- Kd (KIT; competition binding): > 2000 nM
- Kinase specificity S(10) [1, 4]: A (A≤0.01)
- Kd (PDGFRβ; competition binding): > 2000 nM
- IC50 (M-NFS-60 cells; M-NFS-60 cell proliferation): > 1500 nM
- Kd (CSF1R; competition binding): 5 to 20 nM

Structure (SMILES): CC(=O)c1ccn2c(Cc3ccc4nc(N[C@@H]5CCCC[C@H]5O)sc4c3)cnc2c1 [Example 200, 1-(3-((2-(((1R,2R)-2-hydroxycyclohexyl)amino)benzo[d]thiazol-6-yl)methyl)imidazo[1,2-a]pyridin-7-yl)ethanone]
- Kd (KIT; competition binding): 500 to 2000 nM
- Kinase specificity S(10) [1, 4]: A (A≤0.01)
- Kd (PDGFRβ; competition binding): 50 to 500 nM
- IC50 (M-NFS-60 cells; M-NFS-60 cell proliferation): 50 to 400 nM
- Kd (CSF1R; competition binding): 5 to 20 nM

Structure (SMILES): CC(O)c1ccn2c(Cc3ccc4nc(N[C@@H]5CCCC[C@H]5O)sc4c3)cnc2c1 (stereo partly drawn) [Example 201, (1R,2R)-2-((6-((7-(1-hydroxyethyl)imidazo[1,2-a]pyridin-3-yl)methyl)benzo[d]thiazol-2-yl)amino)cyclohexanol]
- Kd (KIT; competition binding): 500 to 2000 nM
- Kinase specificity S(10) [1, 4]: A (A≤0.01)
- Kd (PDGFRβ; competition binding): 500 to 2000 nM
- IC50 (M-NFS-60 cells; M-NFS-60 cell proliferation): > 1500 nM
- Kd (CSF1R; competition binding): 20 to 50 nM

Structure (SMILES): CC(=NO)c1ccn2c(Cc3ccc4nc(N[C@@H]5CCCC[C@H]5O)sc4c3)cnc2c1 [Example 202, 1-(3-((2-(((1R,2R)-2-hydroxycyclohexyl)amino)benzo[d]thiazol-6-yl)methyl)imidazo[1,2-a]pyridin-7-yl)ethanone oxime]
- Kd (KIT; competition binding): 100 to 500 nM
- Kinase specificity S(10) [1, 4]: A (A≤0.01)
- Kd (PDGFRβ; competition binding): 50 to 500 nM
- IC50 (M-NFS-60 cells; M-NFS-60 cell proliferation): 50 to 400 nM
- Kd (CSF1R; competition binding): 5 to 20 nM

Structure (SMILES): O[C@@H]1CCCC[C@H]1Nc1nc2ccc(Cn3cnc4cc(Br)cc(F)c43)cc2s1 [Example 203, (1R,2R)-2-((6-((5-bromo-7-fluoro-1H-benzo[d]imidazol-1-yl)methyl)benzo[d]thiazol-2-yl)amino)cyclohexanol]
- Kd (KIT; competition binding): ≤ 100 nM
- Kinase specificity S(10) [1, 4]: A (A≤0.01)
- Kd (PDGFRβ; competition binding): 50 to 500 nM
- IC50 (M-NFS-60 cells; M-NFS-60 cell proliferation): 50 to 400 nM
- Kd (CSF1R; competition binding): 5 to 20 nM

Structure (SMILES): CON=C(C)c1ccn2c(Cc3ccc4nc(N[C@@H]5CCCC[C@H]5O)sc4c3)cnc2c1 [Example 204, 1-(3-((2-(((1R,2R)-2-hydroxycyclohexyl)amino)benzo[d]thiazol-6-yl)methyl)imidazo[1,2-a]pyridin-7-yl)ethanone O-methyl oxime]
- Kd (KIT; competition binding): 100 to 500 nM
- Kinase specificity S(10) [1, 4]: A (A≤0.01)
- Kd (PDGFRβ; competition binding): 50 to 500 nM
- IC50 (M-NFS-60 cells; M-NFS-60 cell proliferation): 50 to 400 nM
- Kd (CSF1R; competition binding): 5 to 20 nM

Structure (SMILES): O[C@@H]1CCCC[C@H]1Nc1nc2ccc(Cc3cnc4[nH]c5ccccc5n34)cc2s1 [Example 205, (1R,2R)-2-((6-((9H-benzo[d]imidazo[1,2-a]imidazol-3-yl)methyl)benzo[d]thiazol-2-yl)amino)cyclohexanol]
- Kd (KIT; competition binding): 500 to 2000 nM
- Kinase specificity S(10) [1, 4]: B (0.01<B≤0.02)
- Kd (PDGFRβ; competition binding): 50 to 500 nM
- IC50 (M-NFS-60 cells; M-NFS-60 cell proliferation): 400 to 1500 nM
- Kd (CSF1R; competition binding): 5 to 20 nM

Structure (SMILES): N#Cc1cc(F)c2c(c1)ncn2Cc1ccc2nc(N[C@@H]3CCCC[C@H]3O)sc2c1 [Example 206, 7-fluoro-1-((2-(((1R,2R)-2-hydroxycyclohexyl)amino)benzo[d]thiazol-6-yl)methyl)-1H-benzo[d]imidazole-5-carbonitrile]
- Kd (KIT; competition binding): 100 to 500 nM
- Kinase specificity S(10) [1, 4]: A (A≤0.01)
- Kd (PDGFRβ; competition binding): 50 to 500 nM
- IC50 (M-NFS-60 cells; M-NFS-60 cell proliferation): 50 to 400 nM
- Kd (CSF1R; competition binding): 5 to 20 nM

Structure (SMILES): C=Cc1cc(F)c2c(c1)ncn2Cc1ccc2nc(N[C@@H]3CCCC[C@H]3O)sc2c1 [Example 207, (1R,2R)-2-((6-((7-fluoro-5-vinyl-1H-benzo[d]imidazol-1-yl)methyl)benzo[d]thiazol-2-yl)amino)cyclohexanol]
- Kd (KIT; competition binding): ≤ 100 nM
- Kinase specificity S(10) [1, 4]: B (0.01<B≤0.02)
- Kd (PDGFRβ; competition binding): ≤ 50 nM
- IC50 (M-NFS-60 cells; M-NFS-60 cell proliferation): ≤ 50 nM
- Kd (CSF1R; competition binding): 5 to 20 nM

Structure (SMILES): O[C@@H]1CCCC[C@H]1Nc1nc2ccc(Cn3cnc4cc(C5=CCOCC5)cc(F)c43)cc2s1 [Example 208, (1R,2R)-2-((6-((5-(3,6-dihydro-2H-pyran-4-yl)-7-fluoro-1H-benzo[d]imidazol-1-yl)methyl)benzo[d]thiazol-2-yl)amino)cyclohexanol]
- Kd (KIT; competition binding): ≤ 100 nM
- Kinase specificity S(10) [1, 4]: B (0.01<B≤0.02)
- Kd (PDGFRβ; competition binding): ≤ 50 nM
- IC50 (M-NFS-60 cells; M-NFS-60 cell proliferation): ≤ 50 nM
- Kd (CSF1R; competition binding): ≤ 5 nM
